Source: US6737383B1, “Herbicidal oxadiazolidines” (priority 1999, dated 2004)

Columns and labels:
bamyardgrass = assay: Test B flood test barnyardgrass; assay type: in vivo, Echinochloa crus-galli
Procedure, shortened: (§1)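 Each value is a visual injury score relative to controls, with 10 meaning complete control and 0 no effect. Evaluation took place twelve to sixteen days after the 2-leaf-stage plants were treated and kept in the greenhouse.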

winter wheat [1] = assay: Test E winter wheat; assay type: in vivo, Triticum aestivum; details: Postemergence
Procedure, shortened: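 Visually scored herbicidal effect relative to untreated plants, taken ~21 to 28 days post-application; compound in solvent with surfactant; postemergence sprays at the 1- to 4-leaf stage.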

winter barley = assay: Test E winter barley; assay type: in vivo, Hordeum vulgare; details: Preemergence
rice = assay: Test B flood test rice; assay type: in vivo, Oryza sativa
Procedure, shortened: as §1

pigweed = assay: Test B pre/postemergence pigweed; assay type: in vivo, Amaranthus retroflexus
Procedure, shortened: (§2)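 Response is a visual 0-to-10 score relative to untreated plants, where 0 means no effect and 10 means complete control, taken twelve to sixteen days after application. Treatments went onto soil at planting and onto foliage of 1- to 4-leaf plants, using a surfactant-containing non-phytotoxic solvent.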

wild oat = assay: Test E wild oat; assay type: in vivo, Avena fatua; details: Preemergence
Italian ryegrass = assay: Test E Italian ryegrass; assay type: in vivo, Lolium multiflorum; details: Preemergence
blackgrass = assay: Test E blackgrass; assay type: in vivo, Alopecurus myosuroides; details: Preemergence
green foxtail = assay: Test E green foxtail; assay type: in vivo, Setaria viridis; details: Preemergence
bedstraw = assay: Test B pre/postemergence bedstraw; assay type: in vivo, Galium aparine
Procedure, shortened: as §2

winter wheat [2] = assay: Test E winter wheat; assay type: in vivo, Triticum aestivum; details: Preemergence
[3] = Rate 62 g/ha, headed Pre-emergence (flood test species), scale 0 to 10 (0 no effect, 10 complete control)
[4] = Rate 125 g/ha, Pre-emergence, flood test species, scale 0 to 10 where 0 is no effect and 10 is complete control
[5] = Rate 250 g/ha, Pre-emergence, flood-test species, scale 0 to 10, 0 is no effect, 10 is complete control
[6] = Rate 500 g/ha, Pre-emergence, flood test species, scale 0 to 10 (0 no effect, 10 complete control)
[7] = Rate 250 g/ha, 0 to 100 scale, 0 is no effect, 100 is complete control
[8] = Rate 125 g/ha, 0 to 100 scale (0 no effect, 100 complete control)
[9] = Rate 250 g/ha, 0 to 100 scale, 0 no effect, 100 complete control
[10] = Preemergence, Rate 62 g/ha, scale of 0 to 10 where 0 is no effect and 10 is complete control
[11] = Preemergence, Rate 250 g/ha, scale of 0 to 10 where 0 is no effect and 10 is complete control
[12] = Preemergence, Rate 500 g/ha, scale of 0 to 10 where 0 is no effect and 10 is complete control
[13] = Rate 62 g/ha, Postemergence, scale 0 to 10, 0 no effect, 10 complete control
[14] = Rate 125 g/ha, Postemergence, scale of 0 to 10 where 0 is no effect and 10 is complete control
[15] = Rate 250 g/ha, Postemergence, scale of 0 to 10 where 0 is no effect and 10 is complete control
[16] = Postemergence (flood test species), Rate 125 g/ha, scale of 0 to 10 where 0 is no effect and 10 is complete control
[17] = Rate 31 g/ha, Postemergence section (flood test species), scale 0 to 10
[18] = Rate 62 g/ha, Postemergence section, flood test species, scale of 0 to 10 where 0 is no effect and 10 is complete control
[19] = Rate 250 g/ha, Postemergence (flood test), scale 0 to 10, 0 is no effect, 10 is complete control
[20] = Postemergence, Rate 125 g/ha, scale of 0 to 10 where 0 is no effect and 10 is complete control
[21] = Preemergence, Rate 62 g/ha, scale 0 to 10 (0 no effect, 10 complete control)
[22] = Preemergence, Rate 125 g/ha, 0 is no effect, 10 is complete control
[23] = Preemergence, Rate 250 g/ha, scale 0 to 10, 0 is no effect, 10 is complete control
[24] = Preemergence, Rate 500 g/ha, scale 0 to 10 (0 no effect, 10 complete control)
[25] = Rate 62 g/ha, Postemergence, scale of 0 to 10 where 0 is no effect and 10 is complete control
[26] = Rate 250 g/ha, Postemergence, scale 0 to 10, 0 is no effect, 10 is complete control
[27] = Rate 500 g/ha, 0 to 100 scale (0 no effect, 100 complete control)
[28] = Rate 1000 g/ha, 0 to 100 scale, 0 no effect, 100 complete control
[29] = Postemergence, Rate 125 g/ha, scale 0 to 10, 0 is no effect, 10 is complete control

CC(C)N(C(=O)n1oc(=O)n(C2CC2)c1=O)c1ccc(F)cc1F [Compound 299]
Barnyardgrass plant response rating (bamyardgrass; [3]): 0
Barnyardgrass plant response rating (bamyardgrass; [4]): 2
Barnyardgrass plant response rating (bamyardgrass; [5]): 6
Barnyardgrass plant response rating (bamyardgrass; [6]): 9
Plant response rating, Wheat (winter) (winter wheat [1]; Rate 125 g/ha, 0 to 100 scale, 0 is no effect, 100 is complete control): 60
Plant response rating, Wheat (winter) (winter wheat [1]; [7]): 70
Plant response rating, Barley (winter) (winter barley; [8]): 40
Plant response rating, Barley (winter) (winter barley; [9]): 50
Rice plant response rating (rice; [3]): 0
Rice plant response rating (rice; [4]): 0
Rice plant response rating (rice; [5]): 0
Rice plant response rating (rice; [6]): 0
Redroot pigweed plant response rating (pigweed; [10]): 9
Redroot pigweed plant response rating (0 to 10 scale) (pigweed; Preemergence, Rate 125 g/ha): 10
Redroot pigweed plant response rating (pigweed; [11]): 10
Redroot pigweed plant response rating (pigweed; [12]): 10
Redroot pigweed plant response rating (pigweed; [13]): 2
Redroot pigweed plant response rating (pigweed; [14]): 3
Plant response rating, Redroot pigweed (pigweed; [15]): 6
Plant response rating, Wild oat (wild oat; [8]): 65
Plant response rating, Wild oat (wild oat; Rate 250 g/ha, 0 to 100 scale): 70
Plant response rating, I. Ryegrass (Italian ryegrass; [8]): 70
Plant response rating, I. Ryegrass (Italian ryegrass; Rate 250 g/ha, 0 to 100 scale): 85
Plant response rating, Blackgrass (blackgrass; [8]): 60
Plant response rating, Blackgrass (blackgrass; Rate 250 g/ha, 0 to 100 scale): 100
Plant response rating, Green foxtail (green foxtail; [8]): 100
Plant response rating, Green foxtail (green foxtail; Rate 250 g/ha, 0 to 100 scale): 100
Bedstraw plant response rating (bedstraw; [10]): 10
Bedstraw plant response rating (0 to 10 scale) (bedstraw; Preemergence, Rate 125 g/ha): 10
Bedstraw plant response rating (bedstraw; [11]): 10
Bedstraw plant response rating (bedstraw; [12]): 10
Bedstraw plant response rating (bedstraw; [13]): 2
Bedstraw plant response rating (bedstraw; [14]): 7
Plant response rating, Wheat (winter) (winter wheat [2]; [8]): 50
Plant response rating, Wheat (winter) (winter wheat [2]; Rate 250 g/ha, 0 to 100 scale): 65

CC(C)N(C(=O)n1oc(=O)n(C)c1=O)c1ccc(Cl)cc1 [Compound 137]
Barnyardgrass plant response rating (bamyardgrass; [16]): 0
Barnyardgrass plant response rating (bamyardgrass; [17]): 0
Barnyardgrass plant response rating (bamyardgrass; [18]): 0
Plant response rating, Barnyardgrass (bamyardgrass; [19]): 0
Plant response rating, Wheat (winter) (winter wheat [1]; Rate 125 g/ha, 0 to 100 scale): 10
Wheat (winter) plant response rating (winter wheat [1]; Rate 250 g/ha, 0 to 100 scale where 0 is no effect and 100 is complete control): 20
Plant response rating, Barley (winter) (winter barley; [8]): 20
Barley (winter) plant response rating (0 to 100 scale) (winter barley; Rate 250 g/ha): 20
Rice plant response rating (rice; [16]): 0
Rice plant response rating (rice; [17]): 0
Rice plant response rating (rice; [18]): 0
Plant response rating, Rice (rice; [19]): 0
Redroot pigweed plant response rating (pigweed; [20]): 4
Redroot pigweed plant response rating (pigweed; [21]): 9
Redroot pigweed plant response rating (0 to 10 scale) (pigweed; [22]): 10
Redroot pigweed plant response rating (pigweed; [23]): 10
Redroot pigweed plant response rating (pigweed; [24]): 10
Redroot pigweed plant response rating (pigweed; [25]): 2
Plant response rating, Redroot pigweed (pigweed; [26]): 5
Redroot pigweed plant response rating (pigweed; Rate 500 g/ha, Postemergence, scale 0 to 10): 6
Plant response rating, Wild oat (wild oat; [8]): 20
Wild oat plant response rating (0 to 100 scale) (wild oat; Rate 250 g/ha): 10
Plant response rating, I. Ryegrass (Italian ryegrass; [8]): 20
I. Ryegrass plant response rating (0 to 100 scale) (Italian ryegrass; Rate 250 g/ha): 50
Plant response rating, Blackgrass (blackgrass; [8]): 20
Blackgrass plant response rating (0 to 100 scale) (blackgrass; Rate 250 g/ha): 30
Plant response rating, Green foxtail (green foxtail; [8]): 15
Green foxtail plant response rating (0 to 100 scale) (green foxtail; Rate 250 g/ha): 50
Bedstraw plant response rating (bedstraw; [20]): 8
Bedstraw plant response rating (bedstraw; [21]): 4
Bedstraw plant response rating (0 to 10 scale) (bedstraw; [22]): 7
Bedstraw plant response rating (bedstraw; [23]): 7
Bedstraw plant response rating (bedstraw; [24]): 10
Bedstraw plant response rating (bedstraw; [25]): 4
Plant response rating, Bedstraw (bedstraw; [26]): 8
Plant response rating, Wheat (winter) (winter wheat [2]; [8]): 20
Wheat (winter) plant response rating (0 to 100 scale) (winter wheat [2]; Rate 250 g/ha): 30

CC(C)N(C(=O)n1oc(=O)n(C2CCCCCC2)c1=O)c1ccc(F)cc1 [Compound 340]
Barnyardgrass plant response rating (bamyardgrass; [3]): 7
Barnyardgrass plant response rating (bamyardgrass; [4]): 6
Barnyardgrass plant response rating (bamyardgrass; [5]): 10
Barnyardgrass plant response rating (bamyardgrass; [6]): 9
Plant response rating, Wheat (winter) (winter wheat [1]; [7]): 30
Plant response rating, Wheat (winter) (winter wheat [1]; Rate 1000 g/ha, 0 to 100 scale where 0 is no effect and 100 is complete control): 60
Plant response rating, Wheat (winter) (winter wheat [1]; Rate 500 g/ha, 0 to 100 scale, 0 is no effect, 100 is complete control): 55
Plant response rating, Barley (winter) (winter barley; [9]): 50
Plant response rating, Barley (winter) (winter barley; [27]): 40
Plant response rating, Barley (winter) (winter barley; [28]): 50
Rice plant response rating (rice; [3]): 0
Rice plant response rating (rice; [4]): 0
Rice plant response rating (rice; [5]): 0
Rice plant response rating (rice; [6]): 0
Plant response rating, Redroot pigweed (pigweed; [29]): 4
Redroot pigweed plant response rating (pigweed; [10]): 0
Redroot pigweed plant response rating (0 to 10 scale) (pigweed; Preemergence, Rate 125 g/ha): 0
Redroot pigweed plant response rating (pigweed; [11]): 3
Redroot pigweed plant response rating (pigweed; [12]): 4
Redroot pigweed plant response rating (pigweed; [25]): 2
Plant response rating, Wild oat (wild oat; Rate 250 g/ha, 0 to 100 scale): 50
Plant response rating, Wild oat (wild oat; [27]): 50
Plant response rating, Wild oat (wild oat; [28]): 60
Plant response rating, I. Ryegrass (Italian ryegrass; Rate 250 g/ha, 0 to 100 scale): 55
Plant response rating, I. Ryegrass (Italian ryegrass; [27]): 60
Plant response rating, I. Ryegrass (Italian ryegrass; [28]): 65
Plant response rating, Blackgrass (blackgrass; Rate 250 g/ha, 0 to 100 scale): 50
Plant response rating, Blackgrass (blackgrass; [27]): 60
Plant response rating, Blackgrass (blackgrass; [28]): 85
Plant response rating, Green foxtail (green foxtail; Rate 250 g/ha, 0 to 100 scale): 30
Plant response rating, Green foxtail (green foxtail; [27]): 60
Plant response rating, Green foxtail (green foxtail; [28]): 100
Plant response rating, Bedstraw (bedstraw; [29]): 7
Bedstraw plant response rating (bedstraw; [10]): 0
Bedstraw plant response rating (0 to 10 scale) (bedstraw; Preemergence, Rate 125 g/ha): 0
Bedstraw plant response rating (bedstraw; [12]): 5
Bedstraw plant response rating (bedstraw; [25]): 3
Plant response rating, Bedstraw (bedstraw; [15]): 7
Plant response rating, Bedstraw (bedstraw; Rate 500 g/ha, Postemergence, scale 0 to 10, 0 no effect, 10 complete control): 8
Plant response rating, Wheat (winter) (winter wheat [2]; Rate 250 g/ha, 0 to 100 scale): 40
Plant response rating, Wheat (winter) (winter wheat [2]; [27]): 50
Plant response rating, Wheat (winter) (winter wheat [2]; [28]): 60
